Measured values published in US20220354863A1, “METHODS FOR THE PROPHYLACTIC TREATMENT OF CANCER IN PATIENTS SUFFERING FROM PANCREATITIS” (INSERM (INSTITUT NATIONAL DE LA SANTÈ ET DE LA RECHERCH …, priority 2019, published 2022).
pIC50, pKi: −log10 of the molar value.

Experiments:
[1] = molecular target: vps34 (Homo sapiens, UniProt Q8NEB9); details: read-out: in vitro IC50 vps34; cited from earlier work
[2] = molecular target: mTOR (Homo sapiens, UniProt P42345); details: cited from earlier work
[3] = molecular target: C2α (Homo sapiens, UniProt O00443); details: read-out: in vitro IC50 C2α; cited from earlier work
[4] = molecular target: p110β (Homo sapiens, UniProt P42338); details: read-out: in vitro IC50 β; cited from earlier work
[5] = molecular target: C2β (Homo sapiens, UniProt O00750); details: read-out: in vitro IC50 C2β; cited from earlier work
[6] = test system: caerulein-treated KC mice; assay: Caerulein-induced pancreatic injury in oncogenic Kras (KC) mice; type: in vivo; details: KrasG12D background, 10 mg/kg by gavage
Excerpt: The LSL-Kras^G12D (from D Tuveson, Mouse Models of Human Cancers Consortium repository (NCI-Frederick, USA), Pdx1-cre (from DA Melton, Harvard University, Cambridge, Mass., USA), p110α^lox (from B. Vanhaesebroeck, UCL, London), strains were interbred on mixed background (CD1/C57B16) to obtain compound mutant Pdx1-Cre;LSL-Kras^G12D (named KC), pdx1-Cre;p110α^lox/lox (Pdx1-Cre;p110α^lox/lox were named α^inC; pdx1-Cre;LSL-Kras^G12D;p110α^lox/lox were named Kα^inC). Littermates not expressing Cre as well as Pdx1-Cre and p110α^lox/lox mice of the same age were used as control. All procedures and animal housing are conformed to the regulatory standards and were approved by the Ethical committee according to European legislation translated to French Law as Décret 2013-118 1 Feb. 2013 (APAFIS 3601-2015121622062840). Genotyping was performed as described: the genetically modified allele is called p110α^lox or p110α^ΔDFG (here named Rec) after Cre recombination. DFG is a conserved motif in the activation loop of the p110α kinase domain critical for its catalytic activity. The gene targeting strategy used is different from a traditional conditional knock-out strategy. […] Primers corresponds to post-cre primers used to verify the presence of recombined allele ΔDFG: ma9: -[…]; ma5: […]; annealing temperature: 65° C.; recombined ΔDFG-544 bp, wild type (+) or unrecombined lox- >10 kbp amplicon. Genotyping of tail or pancreas samples was performed after DNA extraction with Sigma kit (XNAT-100RXN).
Animals were euthanized 1, 3, 7 or 17 days later, and recombination verified before analysis as described in [44, 45].
Immunostainings were conducted using standard methods on formalin-fixed, paraffin-embedded tissues, including both mice and human pancreas.

[7] = molecular target: p110γ (Homo sapiens, UniProt P48736); details: read-out: in vitro IC50 γ; cited from earlier work
[8] = molecular target: p110δ (Homo sapiens, UniProt O00329); details: read-out: in vitro IC50 δ; cited from earlier work

Sequence of p110γ (P48736 whole entry): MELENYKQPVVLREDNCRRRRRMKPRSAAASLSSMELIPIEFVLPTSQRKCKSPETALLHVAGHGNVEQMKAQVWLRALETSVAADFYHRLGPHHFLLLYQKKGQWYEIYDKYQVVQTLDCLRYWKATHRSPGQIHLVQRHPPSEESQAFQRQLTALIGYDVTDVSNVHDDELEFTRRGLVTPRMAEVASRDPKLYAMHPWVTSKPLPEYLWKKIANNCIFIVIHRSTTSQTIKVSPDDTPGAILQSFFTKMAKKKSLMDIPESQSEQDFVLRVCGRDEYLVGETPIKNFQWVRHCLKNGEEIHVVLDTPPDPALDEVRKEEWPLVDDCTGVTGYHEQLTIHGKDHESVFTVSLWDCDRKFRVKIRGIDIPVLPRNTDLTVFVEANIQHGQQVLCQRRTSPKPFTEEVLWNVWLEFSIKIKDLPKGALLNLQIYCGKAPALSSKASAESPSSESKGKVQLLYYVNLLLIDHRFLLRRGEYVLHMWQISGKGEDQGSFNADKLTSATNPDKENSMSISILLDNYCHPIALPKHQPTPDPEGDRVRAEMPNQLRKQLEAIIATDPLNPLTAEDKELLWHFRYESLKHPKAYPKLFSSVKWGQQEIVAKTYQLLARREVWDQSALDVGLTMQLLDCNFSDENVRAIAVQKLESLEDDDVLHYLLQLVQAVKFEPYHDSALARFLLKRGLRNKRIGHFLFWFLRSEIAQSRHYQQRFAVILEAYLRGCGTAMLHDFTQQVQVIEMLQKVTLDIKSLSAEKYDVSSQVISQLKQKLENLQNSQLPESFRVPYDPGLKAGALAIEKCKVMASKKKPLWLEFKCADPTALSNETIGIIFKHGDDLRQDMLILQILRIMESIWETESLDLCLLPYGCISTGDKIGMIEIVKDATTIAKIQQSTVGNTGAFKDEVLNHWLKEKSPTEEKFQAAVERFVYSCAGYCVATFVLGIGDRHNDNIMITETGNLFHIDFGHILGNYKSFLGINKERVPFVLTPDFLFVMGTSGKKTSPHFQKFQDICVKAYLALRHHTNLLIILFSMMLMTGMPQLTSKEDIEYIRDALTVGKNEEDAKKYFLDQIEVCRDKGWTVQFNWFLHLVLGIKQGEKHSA
Sequence of C2β (O00750 whole entry): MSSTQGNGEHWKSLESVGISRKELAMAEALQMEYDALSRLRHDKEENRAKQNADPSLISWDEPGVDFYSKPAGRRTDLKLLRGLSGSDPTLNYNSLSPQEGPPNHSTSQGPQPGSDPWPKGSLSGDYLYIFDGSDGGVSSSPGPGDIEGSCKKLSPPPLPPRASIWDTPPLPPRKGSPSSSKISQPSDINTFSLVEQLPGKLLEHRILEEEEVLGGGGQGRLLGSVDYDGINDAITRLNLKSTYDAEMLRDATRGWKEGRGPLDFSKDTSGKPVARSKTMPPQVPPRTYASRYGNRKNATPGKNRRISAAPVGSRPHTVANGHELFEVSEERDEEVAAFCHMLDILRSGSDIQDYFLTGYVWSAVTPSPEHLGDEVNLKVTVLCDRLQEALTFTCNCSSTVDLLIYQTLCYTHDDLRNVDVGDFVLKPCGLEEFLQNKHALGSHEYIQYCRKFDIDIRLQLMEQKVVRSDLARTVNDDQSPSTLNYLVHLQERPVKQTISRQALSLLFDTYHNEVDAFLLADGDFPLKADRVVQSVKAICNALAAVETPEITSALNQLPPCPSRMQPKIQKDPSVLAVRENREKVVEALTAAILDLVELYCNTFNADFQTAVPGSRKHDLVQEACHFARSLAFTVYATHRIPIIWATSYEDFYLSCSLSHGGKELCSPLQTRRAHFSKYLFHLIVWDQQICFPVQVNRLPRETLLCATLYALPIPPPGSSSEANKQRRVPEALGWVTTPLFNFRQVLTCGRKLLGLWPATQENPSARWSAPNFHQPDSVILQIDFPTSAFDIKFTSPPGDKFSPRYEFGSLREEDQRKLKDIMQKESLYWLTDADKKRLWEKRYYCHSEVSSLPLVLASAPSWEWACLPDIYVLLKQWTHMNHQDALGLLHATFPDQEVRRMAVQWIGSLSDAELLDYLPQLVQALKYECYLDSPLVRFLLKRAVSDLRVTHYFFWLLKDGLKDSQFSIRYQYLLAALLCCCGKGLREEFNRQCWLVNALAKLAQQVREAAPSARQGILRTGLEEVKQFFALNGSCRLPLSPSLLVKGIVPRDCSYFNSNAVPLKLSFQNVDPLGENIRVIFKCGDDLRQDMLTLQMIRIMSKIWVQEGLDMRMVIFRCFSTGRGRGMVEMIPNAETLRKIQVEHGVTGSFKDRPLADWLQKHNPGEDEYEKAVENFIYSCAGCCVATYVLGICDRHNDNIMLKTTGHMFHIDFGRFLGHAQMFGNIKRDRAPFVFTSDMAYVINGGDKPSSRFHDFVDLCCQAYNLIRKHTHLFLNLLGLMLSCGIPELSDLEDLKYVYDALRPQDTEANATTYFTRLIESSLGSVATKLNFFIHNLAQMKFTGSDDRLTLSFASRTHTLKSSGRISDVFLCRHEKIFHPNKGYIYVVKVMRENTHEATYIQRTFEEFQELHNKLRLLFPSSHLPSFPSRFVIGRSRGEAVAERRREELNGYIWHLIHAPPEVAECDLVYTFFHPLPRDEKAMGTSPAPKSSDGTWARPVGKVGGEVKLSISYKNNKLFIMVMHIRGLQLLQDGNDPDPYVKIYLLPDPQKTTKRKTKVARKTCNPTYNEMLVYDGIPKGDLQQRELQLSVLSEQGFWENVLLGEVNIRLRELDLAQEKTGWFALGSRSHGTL
Sequence of vps34 (Q8NEB9 whole entry, species assumed): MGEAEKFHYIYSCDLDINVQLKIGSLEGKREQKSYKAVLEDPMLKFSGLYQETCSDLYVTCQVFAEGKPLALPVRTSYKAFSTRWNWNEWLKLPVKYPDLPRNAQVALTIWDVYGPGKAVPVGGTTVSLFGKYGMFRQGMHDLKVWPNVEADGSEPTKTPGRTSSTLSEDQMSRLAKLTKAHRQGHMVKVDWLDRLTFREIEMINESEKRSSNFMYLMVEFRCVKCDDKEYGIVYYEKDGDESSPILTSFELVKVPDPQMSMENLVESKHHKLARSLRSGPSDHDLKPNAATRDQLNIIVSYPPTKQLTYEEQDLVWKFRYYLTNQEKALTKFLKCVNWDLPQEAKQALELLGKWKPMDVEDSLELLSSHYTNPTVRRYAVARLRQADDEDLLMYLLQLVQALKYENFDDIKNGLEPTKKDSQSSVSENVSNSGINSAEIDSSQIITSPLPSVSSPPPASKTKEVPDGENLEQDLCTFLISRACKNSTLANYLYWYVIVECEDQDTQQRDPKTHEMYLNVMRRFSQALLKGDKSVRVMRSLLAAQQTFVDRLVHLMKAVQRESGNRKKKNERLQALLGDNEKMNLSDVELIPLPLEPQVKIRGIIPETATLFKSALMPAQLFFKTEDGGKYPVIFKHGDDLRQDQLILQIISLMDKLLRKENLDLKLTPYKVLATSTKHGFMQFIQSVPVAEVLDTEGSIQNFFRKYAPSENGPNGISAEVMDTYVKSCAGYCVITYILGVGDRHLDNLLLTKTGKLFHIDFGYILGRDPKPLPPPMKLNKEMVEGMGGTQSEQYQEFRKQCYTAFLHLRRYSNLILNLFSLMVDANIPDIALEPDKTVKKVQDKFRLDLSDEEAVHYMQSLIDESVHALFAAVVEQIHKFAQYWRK

For CC(C)n1ncnc1-c1cn2c(n1)-c1ccc(O[C@@H](C)C(N)=O)cc1OCC2 [GDC0326, (S)-2-((2-(1-Isopropyl-1H-1,2,4-triazol-5-yl)-5,6-dihydrobenzo[f]imidazo [1,2-d][1,4]oxazepin-9-yl)oxy)propanamide], the pIC50 [1] is given as 5.55, the pKi [2] is given as 5.37 and the pIC50 [3] is given as under 5.00. The pIC50 [4] was 6.88, the pIC50 [5] was 6.58 and the “activation of the stromal compartment (CD18 immune cell staining, picrosirius red collagen deposit staining)” value [6] was “reversed the activation of the stromal compartment”. For the same compound, the lesion area ([6]; day 17, compared to caerulein-treated KC mice that received vehicle) was “significant decrease of lesion area”, the p-Akt substrate staining ([6]; day 17, vs vehicle) was “absence of p-Akt Subsrate staining” and the pIC50 [7] was 7.29. The pIC50 [8] was 7.70.
